Experimental data: patent US12383556B2, “Methods of treating Sjögren's syndrome using a Bruton's tyrosine kinase inhibitor” (NOVARTIS AG, priority 2019, dated 2025)
Read-outs that look alike come from different tables or passages of the source.

Test: First-in-human Part 2 multiple ascending dose q.d. blood and urine PK
Format: in vivo
Details: for Amount recovered / Amount recovered (%): Day 12, urine; for drug accumulation ratio (Racc): day 12 vs day 1, q.d.; for CL renal: blood and urine, Day 12, read-out: Renal clearance
Source text: First-in-human study in up to approximately 168 healthy volunteers (HVs), of which 64 (in Parts 2 & 4) had asymptomatic atopic diathesis. • Part 1 was a double-blind (subject and investigator blind, sponsor unblinded), placebo-controlled single ascending dose (SAD) escalation study of 10 cohorts (N=80) • Part 2 was a double-blind (subject and investigator blind, sponsor unblinded), placebo-controlled multiple ascending dose (MAD) (13 doses over 12 days) escalation study employing once daily dosing in 6 cohorts in healthy volunteers with asymptomatic atopic diathesis (N=48) • Part 3 was a single dose open-label crossover food effect study in 12 HVs • Part 4 was a double-blind (subject and investigator blind, sponsor unblinded), placebo-controlled multiple dose (25 doses over 12 days) study employing twice daily dosing in 2 cohorts of healthy volunteers with asymptomatic atopic diathesis (N=16)
In Parts 2 and 4, subjects were admitted on Day −2 or −1 for baseline safety assessments and to confirm eligibility. Eligible subjects received the first dose of compound (I) under fasting conditions on Day 1, and continued to take study medication under fasting conditions up to and including Day 12. Subjects were domiciled from Day −2 or −1 until the morning of Day 16, which equals 96 hours after the last dose of compound (I) was received. In Parts 2 and 4, the study medication was given once daily and twice daily respectively (details are found in the schedule of assessments).
Subjects were assigned to one of the following 6 cohorts. In each cohort, 8 subjects were randomized to either compound (I) or matching placebo in a 6:2 ratio. • Cohort 1: multiple oral doses of 10 mg compound (I) or matching placebo • Cohort 2: multiple oral doses of 25 mg compound (I) or matching placebo • Cohort 3: multiple oral doses of 50 mg compound (I) or matching placebo • Cohort 4: multiple oral doses of 100 mg compound (I) or matching placebo • Cohort 5: multiple oral doses of 400 mg compound (I) or matching placebo • Cohort 6: multiple oral doses of up to 600 mg compound (I) or matching placebo
Pharmacokinetic samples were obtained in blood and evaluated in all subjects at all dose levels. The samples from placebo subjects were not analyzed. The samples for PK assessments from subjects were collected at time points defined in the study. Compound (I) concentrations were determined in blood by a validated LC-MS/MS method.

[1] = 10 mg qd, Day 12, blood, Mean ± SD
[2] = 25 mg qd, Day 12, blood, Mean ± SD
[3] = 50 mg qd, Day 12, blood, Mean ± SD
[4] = 50 mg qd, Day 12, blood, Median (Min-Max)
[5] = 100 mg qd, Day 1, blood, Mean ± SD
[6] = 100 mg qd, Day 1, blood, Median (Min-Max)
[7] = 100 mg qd, Day 12, blood, Mean ± SD
[8] = 400 mg qd, Day 1, blood, Mean ± SD
[9] = 400 mg qd, Day 12, blood, Mean ± SD
[10] = 600 mg qd, Day 1, blood, Mean ± SD
[11] = 600 mg qd, Day 12, blood, Mean ± SD

## C=CC(=O)N(C)CCOc1c(N)ncnc1-c1cc(F)cc(NC(=O)c2ccc(C3CC3)cc2F)c1C [Compound of Formula (I), N-(3-(6-Amino-5-(2-(N-methylacrylamido)ethoxy)pyrimidin-4-yl)-5-fluoro-2-methylphenyl)-4-cyclopropyl-2-fluorobenzamide]
10 mg qd, Day 1, blood, Mean ± SD
  Cmax: 8.40 ± 2.02 ng/mL
[1]
  CLss/F: 425 ± 64.8 L/h
  Cmax: 18.2 ± 5.90 ng/mL
10 mg qd, Day 12, blood, Median (Min-Max)
  CLss/F: 423 (341-529) L/h
10 mg qd, Mean ± SD
  Amount recovered: 0.0663 ± 0.0309 mg
  Amount recovered (%): 0.663 ± 0.309%
10 mg qd, Median (Min-Max)
  Amount recovered: 0.0630 mg
25 mg qd, Day 1, blood, Mean ± SD
  Cmax: 40.9 ± 21.6 ng/mL
[2]
  CLss/F: 307 ± 253 L/h
  Cmax: 85.9 ± 31.5 ng/mL
25 mg qd, Day 12, blood, Median (Min-Max)
  CLss/F: 248 (129-809) L/h
25 mg qd, Mean ± SD
  Amount recovered: 0.114 ± 0.0706 mg
  Amount recovered (%): 0.456 ± 0.283%
50 mg qd, Day 1, blood, Mean ± SD
  Cmax: 76.5 ± 22.0 ng/mL
[3]
  CLss/F: 268 ± 92.8 L/h
  Cmax: 102 ± 22.0 ng/mL
[4]
  CLss/F: 276 (154-395) L/h
  Cmax: 100 (73.3-131) ng/mL
50 mg qd, Mean ± SD
  Amount recovered: 0.233 ± 0.0880 mg
  Amount recovered (%): 0.467 ± 0.176%
[5]
  AUC0-24: 315 ± 91.5 ng·h/mL
  AUClast: 311 ± 89.1 ng·h/mL
  Cmax: 187 ± 85.0 ng/mL
  MRT: 167 ± 76.8 min
[6]
  AUC0-24: 338 (168-419) h*ng/mL
  AUClast: 333 (168-416) h*ng/mL
  Cmax: 189 (75.6-285) ng/mL
[7]
  AUC0-24: 485 ± 179 ng·h/mL
  AUClast: 488 ± 172 ng·h/mL
  CLss/F: 198 ± 88.7 L/h
  Cmax: 233 ± 84.1 ng/mL
100 mg qd, Day 12, blood, Median (Min-Max)
  CLss/F: 166 (129-298) L/h
100 mg qd, Mean ± SD
  Amount recovered: 0.648 ± 0.330 mg
  Amount recovered (%): 0.648 ± 0.330%
[8]
  AUC0-24: 977 ± 378 ng·h/mL
  AUClast: 973 ± 379 ng·h/mL
  Cmax: 518 ± 89.1 ng/mL
  MRT: 181 ± 66.6 min
400 mg qd, Day 1, blood, Median (Min-Max)
  Cmax: 513 (383-622) ng/mL
[9]
  AUC0-24: 1280 ± 577 ng·h/mL
  AUClast: 1300 ± 602 ng·h/mL
  CLss/F: 366 ± 150 L/h
  Cmax: 551 ± 263 ng/mL
400 mg qd, Day 12, blood, Median (Min-Max)
  CLss/F: 351 (177-591) L/h
400 mg qd, Mean ± SD
  Amount recovered: 1.25 ± 0.647 mg
  Amount recovered (%): 0.313 ± 0.162%
[10]
  AUC0-24: 1080 ± 377 ng·h/mL
  AUClast: 1080 ± 377 ng·h/mL
  Cmax: 550 ± 87.6 ng/mL
  MRT: 188 ± 34.8 min
600 mg qd, Day 1, blood, Median (Min-Max)
  Cmax: 545 (461-691) ng/mL
[11]
  AUC0-24: 1230 ± 356 ng·h/mL
  AUClast: 1240 ± 341 ng·h/mL
  CLss/F: 521 ± 131 L/h
  Cmax: 563 ± 229 ng/mL
600 mg qd, Day 12, blood, Median (Min-Max)
  CLss/F: 569 (345-661) L/h
600 mg qd, Mean ± SD
  Amount recovered: 1.54 ± 0.915 mg
  Amount recovered (%): 0.257 ± 0.153%
High dose
  drug accumulation ratio (Racc): 1.2
Low dose
  drug accumulation ratio (Racc): 5
human, oral, 10 mg, 10 mg qd, Mean ± SD
  CL renal: 45.3 ± 18 mL/min
human, oral, 10 mg, 10 mg qd, Median (Min-Max)
  CL renal: 41.6 mL/min
human, oral, 25 mg, 25 mg qd, Mean ± SD
  CL renal: 16.8 ± 6.81 mL/min
human, oral, 25 mg, 25 mg qd, Median (Min-Max)
  CL renal: 18.9 mL/min
human, oral, 50 mg, 50 mg qd, Mean ± SD
  CL renal: 20.4 ± 2.4 mL/min
human, oral, 50 mg, 50 mg qd, Median (Min-Max)
  CL renal: 20.5 mL/min
human, oral, 100 mg, 100 mg qd, Mean ± SD
  CL renal: 21.6 ± 5.41 mL/min
human, oral, 100 mg, 100 mg qd, Median (Min-Max)
  CL renal: 21.1 mL/min
human, oral, 400 mg, 400 mg qd, Mean ± SD
  CL renal: 16.9 ± 7.13 mL/min
human, oral, 400 mg, 400 mg qd, Median (Min-Max)
  CL renal: 14.5 mL/min
human, oral, 600 mg, 600 mg qd, Mean ± SD
  CL renal: 20 ± 8.25 mL/min
human, oral, 600 mg, 600 mg qd, Median (Min-Max)
  CL renal: 18.1 mL/min
human, blood, oral, 10 mg, 10 mg qd, Day 1, blood, Mean ± SD, read-out: AUC0-24
  AUC(0-t): 4.94 ± 1.35 ng·h/mL
human, blood, oral, 10 mg, 10 mg qd, Day 1, blood, Mean ± SD, read-out: AUClast
  AUC(0-t): 4.17 ± 1.38 ng·h/mL
human, blood, oral, 10 mg, 10 mg qd, Day 1, blood, Mean ± SD, read-out: MRT
  MRT: 45.7 ± 9.06 min
human, blood, oral, 10 mg, 10 mg qd, Day 1, blood, Median (Min-Max)
  Tmax: 31 min
human, blood, oral, 10 mg, 10 mg qd, Day 1, blood, Median (Min-Max), read-out: AUC0-24
  AUC(0-t): 4.94 ng·h/mL
